Assay results: US11021444B2, “Antiviral compounds” (priority 2013, dated 2021)
pEC50, pIC50: −log10 of the molar value. Like-named read-outs stand apart in the source and are kept apart here.

Legend:
recombinant RSV complex = recombinant RSV complex (Human respiratory syncytial virus A, UniProt P28887); test: RSV Polymerase Inhibition Assay; type: biochemical
How it was run: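 10 nM recombinant RSV polymerase complex in Tris-HCl pH 7.5, 6 mM MgCl2 with RNA oligonucleotide template and radionucleotides, incubated 2 h at 30 °C with increasing inhibitor concentrations. Reaction stopped with EDTA; radiolabeled RNA product counted by scintillation.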

[1] = Cytotoxicity Determination (CCK-8, without addition of virus); type: cell-based; details: human, 50% cytotoxicity concentration (CC50)
How it was run: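 HEp-2 cells were seeded at 1,500 cells/well one day before compound addition. Compounds were tested without virus in duplicate over 7 points from 100 μM in 1/2 steps, with 1% final DMSO, 5 days at 37 °C, 5% CO2. Viability was read by CCK-8 after 3-4 hours.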

[2] = test system: Respiratory Syncytial Virus (RSV) long strain; test: microbe, parasite or virus in culture; type: cell-based; details: human respiratory syncytial virus, Tables A and B list compounds by EC50 band
How it was run: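 HEp-2 cells infected with 100 TCID50 virus per well, compounds in duplicate, 9-point 1/3 dilutions from 100 μM or 1 μM, 1% DMSO. After 5 days at 37 °C, cell viability (CPE protection) read by CCK-8 absorbance at 450 nm, 630 nm background.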

[3] = HEp-2, 120 h, read-out: 50% effective concentration (EC50), HEp-2 cells infected with RSV long strain, 5 days, CCK-8 readout

Sequence of recombinant RSV complex (P28887 whole entry): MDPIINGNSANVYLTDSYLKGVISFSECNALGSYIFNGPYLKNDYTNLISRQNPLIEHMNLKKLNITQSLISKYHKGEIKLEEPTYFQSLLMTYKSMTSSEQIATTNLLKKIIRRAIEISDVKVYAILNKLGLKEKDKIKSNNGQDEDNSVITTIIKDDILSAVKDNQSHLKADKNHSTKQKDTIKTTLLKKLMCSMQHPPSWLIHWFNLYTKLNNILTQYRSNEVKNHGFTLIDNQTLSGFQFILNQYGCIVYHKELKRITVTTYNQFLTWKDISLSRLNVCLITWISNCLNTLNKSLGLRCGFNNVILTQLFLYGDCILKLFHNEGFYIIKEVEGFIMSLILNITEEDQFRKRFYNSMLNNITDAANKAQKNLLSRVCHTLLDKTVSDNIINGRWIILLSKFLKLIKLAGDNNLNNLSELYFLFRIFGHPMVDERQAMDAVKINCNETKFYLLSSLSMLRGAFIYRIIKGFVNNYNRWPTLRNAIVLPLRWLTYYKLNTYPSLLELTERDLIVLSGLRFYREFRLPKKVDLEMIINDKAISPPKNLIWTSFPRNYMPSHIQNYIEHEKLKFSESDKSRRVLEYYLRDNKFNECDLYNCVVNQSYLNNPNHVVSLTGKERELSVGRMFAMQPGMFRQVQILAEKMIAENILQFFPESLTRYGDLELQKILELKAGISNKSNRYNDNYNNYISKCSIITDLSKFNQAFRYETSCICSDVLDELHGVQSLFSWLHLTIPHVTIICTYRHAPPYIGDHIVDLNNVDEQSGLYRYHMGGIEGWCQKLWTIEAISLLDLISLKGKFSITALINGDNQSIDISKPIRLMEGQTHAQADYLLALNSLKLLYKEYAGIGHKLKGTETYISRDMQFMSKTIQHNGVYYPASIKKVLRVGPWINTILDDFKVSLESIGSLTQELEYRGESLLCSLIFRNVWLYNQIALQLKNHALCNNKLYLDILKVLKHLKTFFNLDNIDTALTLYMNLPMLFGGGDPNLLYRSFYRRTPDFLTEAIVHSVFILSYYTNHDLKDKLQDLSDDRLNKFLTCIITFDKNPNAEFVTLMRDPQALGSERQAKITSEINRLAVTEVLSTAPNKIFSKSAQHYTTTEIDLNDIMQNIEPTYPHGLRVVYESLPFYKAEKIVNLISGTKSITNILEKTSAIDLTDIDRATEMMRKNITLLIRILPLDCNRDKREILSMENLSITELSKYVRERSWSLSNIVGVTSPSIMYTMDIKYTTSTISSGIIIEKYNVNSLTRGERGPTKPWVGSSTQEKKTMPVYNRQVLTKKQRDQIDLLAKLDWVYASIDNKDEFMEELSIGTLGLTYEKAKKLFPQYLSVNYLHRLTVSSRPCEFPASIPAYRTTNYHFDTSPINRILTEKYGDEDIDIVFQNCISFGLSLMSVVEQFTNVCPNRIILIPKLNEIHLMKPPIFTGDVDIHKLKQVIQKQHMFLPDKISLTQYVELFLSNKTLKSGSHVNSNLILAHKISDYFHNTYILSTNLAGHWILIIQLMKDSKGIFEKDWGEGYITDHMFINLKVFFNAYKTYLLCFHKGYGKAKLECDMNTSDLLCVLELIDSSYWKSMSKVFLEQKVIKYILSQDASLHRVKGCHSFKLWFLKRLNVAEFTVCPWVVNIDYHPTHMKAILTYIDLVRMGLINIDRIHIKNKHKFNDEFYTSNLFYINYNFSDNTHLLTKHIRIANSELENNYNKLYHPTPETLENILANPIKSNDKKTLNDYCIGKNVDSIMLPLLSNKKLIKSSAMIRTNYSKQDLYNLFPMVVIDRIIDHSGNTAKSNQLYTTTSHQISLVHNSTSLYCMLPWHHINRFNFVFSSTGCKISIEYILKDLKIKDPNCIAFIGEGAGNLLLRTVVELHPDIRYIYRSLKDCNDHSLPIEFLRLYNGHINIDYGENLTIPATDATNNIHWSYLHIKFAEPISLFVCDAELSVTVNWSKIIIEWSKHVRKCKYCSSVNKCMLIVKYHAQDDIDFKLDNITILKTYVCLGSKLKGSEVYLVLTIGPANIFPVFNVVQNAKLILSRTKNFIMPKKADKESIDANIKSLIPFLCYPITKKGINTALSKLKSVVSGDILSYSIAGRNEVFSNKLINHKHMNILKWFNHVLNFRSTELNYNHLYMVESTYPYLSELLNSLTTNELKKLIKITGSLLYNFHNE
Sequence of recombinant RSV complex (P03421 whole entry, further chain): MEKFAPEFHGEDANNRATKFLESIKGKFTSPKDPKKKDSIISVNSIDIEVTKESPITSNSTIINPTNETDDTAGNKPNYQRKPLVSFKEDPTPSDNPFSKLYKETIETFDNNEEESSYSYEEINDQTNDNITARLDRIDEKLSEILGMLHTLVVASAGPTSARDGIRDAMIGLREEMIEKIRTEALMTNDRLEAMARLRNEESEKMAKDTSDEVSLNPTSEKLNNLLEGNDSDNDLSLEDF

With COc1cc(C(=O)NCC(C)(C)c2ccc(OC)c(-c3ccc(F)c(Cl)c3)n2)ccc1OCCO [Compound 368] the pIC50 (recombinant RSV complex) was > 4.00, the CC50 at 5 days [1] was 10 to 100 µM and the pEC50 [2, 3] was > 6.00.
In the case of COc1cc(C(=O)NCC(O)(c2ccc(OC)c(-c3ccc(F)c(Cl)c3)n2)C2CC2)ccc1CCCO (stereo not drawn) [Compound 426], the pIC50 (recombinant RSV complex) was > 5.00, the CC50 at 5 days [1] was 10 to 100 µM and the pEC50 [2, 3] was > 6.00.
In the case of COc1cc(C(=O)NCC(O)(c2ccc(OC)c(-c3ccc(F)c(Cl)c3)n2)C2CC2)ccc1OC(F)F (stereo not drawn) [Compound 432], the pIC50 (recombinant RSV complex) was > 6.00, the CC50 at 5 days [1] was 10 to 100 µM and the pEC50 [2, 3] was 4.30 to 6.00.
In the case of COc1cc(C(=O)NCC(F)(CF)c2ccc(OC)c(-c3ccc(F)c(Cl)c3)n2)ccc1OCCO (stereo not drawn) [Compound 435], the pIC50 (recombinant RSV complex) was > 6.00, the CC50 at 5 days [1] was 10 to 100 µM and the pEC50 [2, 3] was > 6.00.
In the case of CCc1cc(-c2ccc(F)c(Cl)c2)nc(C(C)(O)CNC(=O)c2ccc(OCC(F)F)c(OC)c2)c1 (stereo not drawn) [Compound 440], the pIC50 (recombinant RSV complex) was > 6.00, the CC50 at 5 days [1] was 10 to 100 µM and the pEC50 ([2]; 120 h, read-out: 50% effective concentration (EC50), HEp-2 cells infected with RSV long strain, 5 days, CCK-8 readout) was 4.30 to 6.00.
In the case of CNc1ccc(C(O)(CNC(=O)c2ccc(OC3CC3)c(OC)c2)C(F)(F)F)nc1-c1ccc(F)c(Cl)c1 (stereo not drawn) [Compound 451], the pIC50 (recombinant RSV complex) was > 6.00, the CC50 at 5 days [1] was > 100 µM and the pEC50 [2, 3] was > 6.00.
With COc1cc(C(=O)NCC(O)(c2ccc(OC)c(-c3ccc(F)c(Cl)c3)n2)C2CNC2)ccc1OC1CC1 (stereo not drawn) [Compound 463] the pIC50 (recombinant RSV complex) was > 6.00, the CC50 at 5 days [1] was 10 to 100 µM and the pEC50 [2, 3] was 4.30 to 6.00.
With COc1cc(C(=O)NCC(O)(c2cc(C(N)=O)cc(-c3ccc(F)c(Cl)c3)n2)C(F)(F)F)ccc1OC1CC1 (stereo not drawn) [Compound 464] the pIC50 (recombinant RSV complex) was > 6.00, the CC50 at 5 days [1] was 10 to 100 µM and the pEC50 [2, 3] was > 6.00.
For COc1cc(C(=O)NCC(O)(c2cc(CO)cc(-c3ccc(F)c(Cl)c3)n2)C(F)(F)F)ccc1OC1CC1 (stereo not drawn) [Compound 465], the pIC50 (recombinant RSV complex) was > 6.00, the CC50 at 5 days [1] was 10 to 100 µM and the pEC50 [2, 3] was > 6.00.
With COc1cc(C(=O)NCC(O)(CO)c2ccc(OC)c(-c3ccc(F)c(Cl)c3)n2)ccc1OC1CC1(F)F (stereo not drawn) [Compound 469] the pIC50 (recombinant RSV complex) was > 6.00, the CC50 at 5 days [1] was 10 to 100 µM and the pEC50 [2, 3] was > 6.00.
For COc1cc(C(=O)NCC(C)(CO)c2ccc(OC)c(-c3ccc(F)c(Cl)c3)n2)ccc1OCCO (stereo not drawn) [Compound 471], the pIC50 (recombinant RSV complex) was > 5.00, the CC50 at 5 days [1] was 10 to 100 µM and the pEC50 [2, 3] was 4.30 to 6.00.
In the case of COc1cc(C(=O)NCC(=O)c2cc3c(c(-c4ccc(F)c(Cl)c4)n2)OCC3(C)O)ccc1OC1CC1 (stereo not drawn) [Compound 473], the pIC50 (recombinant RSV complex) was > 6.00, the CC50 at 5 days [1] was 10 to 100 µM and the pEC50 [2, 3] was > 6.00.
With COc1cc(C(=O)NCC(=O)c2cc3c(C)coc3c(-c3ccc(F)c(Cl)c3)n2)ccc1OC1CC1 [Compound 474] the pIC50 (recombinant RSV complex) was > 6.00, the CC50 at 5 days [1] was > 100 µM and the pEC50 [2, 3] was > 6.00.
For COc1cc(C(=O)NCC(C)(O)c2cc3c(c(-c4ccc(F)c(Cl)c4)n2)OCC3(C)O)ccc1OC1CC1 (stereo not drawn) [Compound 475], the pIC50 (recombinant RSV complex) was > 6.00, the CC50 at 5 days [1] was 10 to 100 µM and the pEC50 [2, 3] was > 6.00.
In the case of CC1(N)COc2c1cc(C(O)(CNC(=O)c1ccc(OCCO)c(F)c1)C(F)(F)F)nc2-c1ccc(F)cc1 (stereo not drawn) [Compound 476], the pIC50 (recombinant RSV complex) was > 6.00, the CC50 at 5 days [1] was 10 to 100 µM and the pEC50 [2, 3] was > 6.00.
For CC(C)(N)c1cc(-c2ccc(F)c(Cl)c2)nc(C(O)(CNC(=O)c2cn3cccnc3n2)C(F)(F)F)c1 (stereo not drawn) [Compound 477], the pIC50 (recombinant RSV complex) was > 5.00, the CC50 at 5 days [1] was 10 to 100 µM and the pEC50 [2, 3] was 4.30 to 6.00.
In the case of COc1cc(C(=O)NCC(O)(c2ccc(OCCN)c(-c3ccc(F)cc3)n2)C(F)(F)F)ccc1OC1CC1 (stereo not drawn) [Compound 479], the pIC50 (recombinant RSV complex) was > 6.00, the CC50 at 5 days [1] was 10 to 100 µM and the pEC50 [2, 3] was > 6.00.
For COc1cc(C(=O)NCC(O)(c2cc3c(c(-c4ccc(F)c(Cl)c4)n2)OCC3(C)N[S+]([O-])C(C)(C)C)C(F)(F)F)ccc1OC1CC1 (stereo not drawn) [Compound 482], the pIC50 (recombinant RSV complex) was > 6.00, the CC50 at 5 days [1] was 10 to 100 µM and the pEC50 [2, 3] was > 6.00.
In the case of COc1cc(C(=O)NCC(O)(c2cc(C(C)(N)CO)cc(-c3ccc(F)cc3)n2)C(F)(F)F)ccc1OCCO (stereo not drawn) [Compound 484], the pIC50 (recombinant RSV complex) was > 5.00, the CC50 at 5 days [1] was > 100 µM and the pEC50 [2, 3] was 4.30 to 6.00.
In the case of COc1cc(C(=O)NCC(O)(c2cc3c(c(-c4ccc(F)nc4)n2)OCC3(C)N)C(F)(F)F)ccc1OCCO (stereo not drawn) [Compound 492], the pIC50 (recombinant RSV complex) was > 5.00, the CC50 at 5 days [1] was > 100 µM and the pEC50 [2, 3] was 4.30 to 6.00.
For COc1cc(C(=O)NC[C@@](O)(c2cc(C(C)(C)N)cc(-c3ccc(F)cc3)n2)C(F)(F)F)ccc1OC1CC1 [Compound 495], the pIC50 (recombinant RSV complex) was > 6.00, the CC50 at 5 days [1] was 10 to 100 µM and the pEC50 [2, 3] was > 6.00.
In the case of COc1cc(C(=O)NCC(N)(c2ccc(OC)c(-c3ccc(F)c(Cl)c3)n2)C(F)F)ccc1OC1CC1 (stereo not drawn) [Compound 517], the pIC50 (recombinant RSV complex) was > 6.00, the CC50 at 5 days [1] was 10 to 100 µM and the pEC50 [2, 3] was > 6.00.
